Reference: US11274095B2, “Modulators of methyl modifying enzymes, compositions and uses thereof” (Constellation Pharmaceuticals, Inc., priority 2018, dated 2022)

Legend:
Karpas-422 cell lines = assay: Karpas-422 viability assay (Cell Titer-Glo, Day 8); format: cell-based; conditions: Cell Titer-Glo on Day 8
Procedure: Karpas-422 cell lines were obtained from DSMZ (Braunschweig, Germany) and were grown in RPMI-1640 media. All media contained 10% fetal bovine serum (FBS) and 1% penicillin/streptomycin (Invitrogen). 20K cells per well were plated onto 96 well compound coated plates. Cells were split and seeded at original plating density (based on the DMSO well counts) every 4 days into plates containing fresh EZH2 inhibitors. Relative cell numbers were assessed by Cell Titer-Glo luminescent cell viability assay (Promega) on Day 8. GraphPad Prism 5 was used for curve fitting and GI50 values were reported.

PRC2 containing wt EZH2 = PRC2 containing wt EZH2 (Homo sapiens (Human), UniProt Q15910); assay: EZH2 biochemical assay (IC50), 3H-SAM incorporation into biotinylated H3 peptide; conditions: 30 pM PRC2 with wt EZH2, 3-5 h pre-incubation
Procedure: EZH2 biochemical assay (IC50): Compound potencies were assessed through incorporation of ^3H-SAM into a biotinylated H3 peptide. Specifically, 30 pM PRC2 containing wt EZH2 (pentameric complex prepared in-house) was pre-incubated with 450 nM SAM, 450 nM ^3H-SAM, 2 μM H3K27me3 activating peptide (H2N-RKQLATKAAR(Kme3)SAPATGGVKKP-amide) and compounds (as 10 point duplicate dose response titrations in DMSO, final assay 0.8% DMSO (v/v)) for 3-5 h in 50 mM Tris (pH 8.5), 1 mM DTT, 0.07 mM Brij-35, 0.1% BSA, and 0.8% DMSO in a total volume of 12.5 μl. Reaction was initiated with biotinylated H3 substrate peptide (H2N-RKQLATKAAR(Kmel)SAPATGGVKKP-NTPEGBiot) as a 2 μM stock in 12.5 μl of buffer and allowed to react at room temperature for 18-22 h. Quenching was accomplished by addition of 20 μl of STOP solution (50 mM Tris (pH 8.5), 200 mM EDTA, 2 mM SAH). 35 μl of the quenched solution was transferred to streptavidin coated FlashPlates (PerkinElmer), incubated 1-2 h, washed, and read in a TopCount Reader (PerkinElmer). IC50s were calculated in Genedata Screener using non-linear least square four parameter fits, where the four parameters were IC50, Hill slope, pre-transitional baseline (0% INH), and post-transitional baseline (100% INH).

[1] = Cellular permeability in MDCK assay; format: in vitro ADME; conditions: dog, pH 7.4, MDCK II, with P-gp inhibitor GF120918 10 μM; for efflux ratio at 2.5 h, 2 μM: Papp(BA)/Papp(AB)
Procedure: Cell culture: MDCK II cells (obtained from Piet Borst at the Netherlands Cancer Institute) were seeded onto […] (PET) in 96-well BD insert systems at 2.5×10^5 cells/mL until to 4-7 days for confluent cell monolayer formation.
Experimental procedure: Test and reference compounds (nadolol, metoprolol and digoxin) were diluted with transport buffer (HBSS with 10mM Hepes, pH7.4) from stock solution to a concentration of 2 μM (<1% DMSO) and applied to the apical (A) or basolateral (B) side of the cell monolayer. Permeation of the test compounds from A to B direction or B to A direction was determined in duplicate with P-gp inhibitor (GF120918, 10 μM). Digoxin was tested at 10 μM from A to B direction or B to A direction with/without P-gp inhibitor (GF120918, 10 μM) as well, while nadolol and metoprolol were tested at 2 μM in A to B direction without P-gp inhibitor (GF120918, 10 μM) in duplicate. The plate was incubated for 2.5 hours in CO2 incubator at 37±1° C., with 5% CO2 at saturated humidity without shaking. In addition, the efflux ratio of each compound was also determined. Test and reference compounds were quantified by LC/MS/MS analysis based on the peak area ratio of analyte/IS. After transport assay, Lucifer yellow rejection assay are applied to determine the cell monolayer integrity. Buffers are removed from both apical and basolateral chambers, followed by the addition of 75 μL of 100 μM lucifer yellow in transport buffer and 250 μL transport buffer in apical and basolateral chambers, respectively. The plate is incubated for 30 minutes at 37° C. with 5% CO2 and 95% relative humidity without shaking. After 30 minutes incubation, 20 μL of lucifer yellow samples are taken from the apical sides, followed by the addition of 60 μL of Transport Buffer. And then 80 μL of lucifer yellow samples are taken from the basolateral sides. The relative fluorescence unit (RFU) of lucifer yellow is measured at 425/528 nm (excitation/emission) with a Molecular Device M2e plate reader.
Data analysis: The apparent permeability coefficient Papp (cm/s) was calculated using the equation: Papp=(dCr/dt)×Vr/(A×C0) Where dCr/dt is the cumulative concentration of compound in the receiver chamber as a function of time (μM/s); Vr is the solution volume in the receiver chamber (0.075 mL on the apical side, 0.25 mL on the basolateral side); A is the surface area for the transport, i.e. 0.0804 cm2 for the area of the monolayer; C0 is the initial concentration in the donor chamber (μM).
The efflux ratio was calculated using the equation: Efflux Ratio=Papp(BA)/Papp(AB) Percent recovery was calculated using the equation: % Recovery=100×[(Vr×Cr)+(Vd×Cd)]/(Vd×C0) Where Vd is the volume in the donor chambers (0.075 mL on the apical side, 0.25 mL on the basolateral side); Cd and Cr are the final concentrations of transport compound in donor and receiver chambers, respectively.
Percent of lucifer yellow in basolateral well is calculated using the equation:
[formula] where RFUApical and RFUBasolateral are the relative fluorescence unit values of lucifer yellow in the apical and basolateral wells, respectively; VApical and VBasolateral are the volume of apical and basolateral wells (0.075 mL and 0.25 mL), respectively. Percent lucifer yellow should be less than 2.

H3K27me3 in Hela cells = assay: H3K27me3 Alpha Hela Assay (AlphaLISA); format: cell-based
Procedure: H3K27me3 Alpha Hela Assay (AlphaLISA). Ten different doses of each test compound (in a series of 3-fold dilutions) were plated in duplicate 384-well tissue culture treated plates (Catalog #6007680; Perkin Elmer, Waltham, Mass.). Hela cells grown in culture were trypsinized and counted using a Countess® cell counter (Catalog #C10281; Life Technologies, Grand Island, N.Y.). Cell were diluted to 67,000 cells per mL in10% DMEM (Catalog #10569-010 Life Technologies, Grand Island, N.Y.) and 15 μL (1,000 cells) were plated into each well using the Biotek MicroFlo™ Select Dispenser (BioTek Instruments, Inc. Vermont, USA),) of the 384-well plate. Plates were incubated at 37° C./5% CO2 for 72 hrs. One of the duplicate plates was processed for HeLa assay and the other for viability. 5 μL of Cell-Histone Lysis buffer (1×) (Catalog #AL009F1 Perkin Elmer; Waltham, Mass.) per well was added to the plate processed for AlphaLISA and the plate was incubated at RT for 30 minutes on a plate shaker with low speed (Model# 4625-Q Thermo Scientific; Waltham, Mass.). Then, 10 μL per well Histone Extraction buffer (catalog #AL009F2; Perkin Elmer; Waltham, Mass.) was added and the plate further incubated at RT for 20 min on plate shaker with low speed. Next, 10 μL of 5× mix of anti-K27me3 acceptor beads plus Biotinylated anti-Histone H3 (C-ter) Antibody (diluted to 3 nM final) (Catalog #AL118 Perkin Elmer; Waltham, Mass.) was added in each well. Dilution of the acceptor beads and anti-Histone H3 was done in 1× Histone Detection buffer (Catalog #AL009F3 Perkin Elmer; Waltham, Mass.) which was produced by diluting the 10× stock provided. The plate was sealed with an aluminum plate sealer and incubated at 23° C. for 60 min. Next, 10 μL 5× solution of Streptavidin Donor beads were added (Catalog #6760002 Perkin Elmer; Waltham, Mass.) (20 μg/mL final in 1× Histone Detection Buffer), =plate was sealed with Aluminum plate sealer and incubated at 23° C. for 30 min. The plates were then read using an EnVision-Alpha Reader (model #2104 Perkin Elmer; Waltham, Mass.). […]

[2] = Homo sapiens, KARPAS-422, 192 h

Sequence of PRC2 containing wt EZH2 (Q15910 whole entry): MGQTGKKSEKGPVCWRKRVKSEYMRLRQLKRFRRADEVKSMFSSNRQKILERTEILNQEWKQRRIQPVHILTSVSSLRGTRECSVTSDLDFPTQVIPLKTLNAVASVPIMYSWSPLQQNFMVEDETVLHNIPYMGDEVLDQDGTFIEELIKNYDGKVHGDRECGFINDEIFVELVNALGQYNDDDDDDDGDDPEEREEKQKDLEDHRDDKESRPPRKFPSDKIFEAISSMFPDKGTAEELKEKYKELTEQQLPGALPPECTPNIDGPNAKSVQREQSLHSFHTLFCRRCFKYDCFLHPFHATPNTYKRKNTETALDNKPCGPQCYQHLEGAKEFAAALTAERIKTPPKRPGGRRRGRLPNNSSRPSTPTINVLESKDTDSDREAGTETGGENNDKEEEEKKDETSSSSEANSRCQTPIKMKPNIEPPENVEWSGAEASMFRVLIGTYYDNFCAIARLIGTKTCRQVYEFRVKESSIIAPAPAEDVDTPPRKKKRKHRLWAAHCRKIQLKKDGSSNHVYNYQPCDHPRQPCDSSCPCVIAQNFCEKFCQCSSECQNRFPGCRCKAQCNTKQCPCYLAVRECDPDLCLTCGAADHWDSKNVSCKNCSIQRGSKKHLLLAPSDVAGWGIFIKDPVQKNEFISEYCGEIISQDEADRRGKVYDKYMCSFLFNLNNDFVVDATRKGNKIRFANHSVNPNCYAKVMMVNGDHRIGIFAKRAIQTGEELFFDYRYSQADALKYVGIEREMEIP
Sequence of PRC2 containing wt EZH2 (O75530 whole entry partner): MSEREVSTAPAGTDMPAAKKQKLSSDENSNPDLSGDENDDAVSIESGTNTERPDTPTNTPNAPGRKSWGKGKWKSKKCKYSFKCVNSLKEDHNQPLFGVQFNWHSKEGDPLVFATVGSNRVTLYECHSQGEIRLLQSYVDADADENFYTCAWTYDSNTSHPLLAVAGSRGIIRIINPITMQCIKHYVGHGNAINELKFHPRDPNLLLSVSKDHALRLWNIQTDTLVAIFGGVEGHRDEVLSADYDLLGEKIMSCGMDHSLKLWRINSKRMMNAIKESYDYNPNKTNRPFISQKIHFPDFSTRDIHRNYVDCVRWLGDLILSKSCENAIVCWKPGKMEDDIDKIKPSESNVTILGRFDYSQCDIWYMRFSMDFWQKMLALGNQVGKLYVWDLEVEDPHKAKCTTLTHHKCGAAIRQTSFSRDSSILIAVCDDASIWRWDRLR
Sequence of PRC2 containing wt EZH2 (Q15022 whole entry partner): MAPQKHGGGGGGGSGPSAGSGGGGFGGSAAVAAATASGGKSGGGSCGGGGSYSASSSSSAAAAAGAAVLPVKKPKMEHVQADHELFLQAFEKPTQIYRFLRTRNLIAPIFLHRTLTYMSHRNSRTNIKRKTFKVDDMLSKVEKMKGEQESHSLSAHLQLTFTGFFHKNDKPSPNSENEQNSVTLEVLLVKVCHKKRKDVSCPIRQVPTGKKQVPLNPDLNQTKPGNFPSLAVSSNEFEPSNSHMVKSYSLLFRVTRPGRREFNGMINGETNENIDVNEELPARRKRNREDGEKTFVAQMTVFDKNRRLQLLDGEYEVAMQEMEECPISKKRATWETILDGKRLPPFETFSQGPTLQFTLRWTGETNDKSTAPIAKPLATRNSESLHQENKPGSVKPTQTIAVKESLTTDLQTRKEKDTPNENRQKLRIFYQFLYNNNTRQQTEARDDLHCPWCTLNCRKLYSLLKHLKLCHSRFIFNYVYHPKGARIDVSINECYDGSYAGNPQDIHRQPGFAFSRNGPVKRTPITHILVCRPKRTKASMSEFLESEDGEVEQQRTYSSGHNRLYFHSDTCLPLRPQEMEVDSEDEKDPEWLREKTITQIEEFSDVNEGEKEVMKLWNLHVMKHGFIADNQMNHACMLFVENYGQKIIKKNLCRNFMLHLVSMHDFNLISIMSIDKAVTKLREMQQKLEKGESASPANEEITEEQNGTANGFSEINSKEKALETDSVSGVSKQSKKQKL
Sequence of PRC2 containing wt EZH2 (Q09028 whole entry partner): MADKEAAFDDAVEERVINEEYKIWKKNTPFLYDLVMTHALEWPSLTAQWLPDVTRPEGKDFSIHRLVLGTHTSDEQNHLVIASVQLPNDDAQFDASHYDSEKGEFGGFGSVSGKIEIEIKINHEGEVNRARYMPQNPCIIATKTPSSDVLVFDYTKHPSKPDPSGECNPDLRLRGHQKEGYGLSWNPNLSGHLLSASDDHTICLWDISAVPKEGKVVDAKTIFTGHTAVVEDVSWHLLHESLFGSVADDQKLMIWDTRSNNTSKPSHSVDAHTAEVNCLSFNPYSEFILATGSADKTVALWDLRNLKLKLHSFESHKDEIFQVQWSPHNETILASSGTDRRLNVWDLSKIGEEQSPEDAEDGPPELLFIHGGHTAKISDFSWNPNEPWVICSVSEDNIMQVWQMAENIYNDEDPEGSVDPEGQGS
Sequence of PRC2 containing wt EZH2 (Q6ZN18 whole entry partner): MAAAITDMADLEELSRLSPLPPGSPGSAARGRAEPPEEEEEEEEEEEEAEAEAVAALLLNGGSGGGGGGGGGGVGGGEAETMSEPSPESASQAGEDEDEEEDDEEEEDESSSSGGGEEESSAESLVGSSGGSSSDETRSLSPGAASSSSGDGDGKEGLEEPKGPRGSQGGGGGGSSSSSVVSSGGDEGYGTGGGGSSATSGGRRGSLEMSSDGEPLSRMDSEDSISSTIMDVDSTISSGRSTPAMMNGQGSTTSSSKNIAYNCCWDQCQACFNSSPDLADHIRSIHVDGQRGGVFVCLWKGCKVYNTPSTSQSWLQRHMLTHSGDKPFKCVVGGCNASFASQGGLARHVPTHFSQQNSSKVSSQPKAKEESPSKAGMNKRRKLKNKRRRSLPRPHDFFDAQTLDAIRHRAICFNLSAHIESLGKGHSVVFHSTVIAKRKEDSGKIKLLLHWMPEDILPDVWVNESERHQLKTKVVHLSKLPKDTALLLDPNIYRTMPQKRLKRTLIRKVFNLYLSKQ

Row | Structure (SMILES) | GI50 (Karpas-422 cell lines; [2]) [nM] | IC50 (PRC2 containing wt EZH2) [nM] | Papp at 2.5 h, 2 μM [1] [×10⁻⁶ cm/s] | efflux ratio at 2.5 h, 2 μM [1] | EC50 (H3K27me3 in Hela cells; Homo sapiens, HeLa, 72 h) [nM] | EC50 (H3K27me3 in Hela cells; 72 hrs) [nM] | GI50 (Karpas-422 cell lines) [nM]
1 | CSc1cc(Cl)[nH]c(=O)c1CNC(=O)c1cc(Cl)c2c(c1C)O[C@@](C)([C@H]1CC[C@H](N(C)C)CC1)O2 [Example 3, (R)-7-chloro-N-((6-chloro-4-(methylthio)-2-oxo-1,2-dihydropyridin-3-yl)methyl)-2-(trans-4-(dimethylamino)cyclohexyl)-2,4-dimethylbenzo[d][1,3]dioxole-5-carboxamide] | 29 | 0.37 | 3.7 | 1.2 | 2.4 |  | 
2 | CSc1cc(C)[nH]c(=O)c1CNC(=O)c1cc(Cl)c2c(c1C)OC(C)(C1CCC(N3CC(F)(F)C3)CC1)O2 (single isomer, unassigned) [Example 7-Enantiomer 1] |  | 8.6 |  |  |  |  | 
3 | Cc1cc(Cl)c(CNC(=O)c2cc(Cl)c3c(c2C)OC(C)(C2CCN(CC(F)(F)F)CC2)O3)c(=O)[nH]1 (single isomer, unassigned) [Example 16-Enantiomer 1, 7-chloro-N-((4-chloro-6-methyl-2-oxo-1,2-dihydropyridin-3-yl)methyl)-2,4-dimethyl-2-(1-(2,2,2-trifluoroethyl)piperidin-4-yl)benzo[d][1,3]dioxole-5-carboxamide] |  | 0.31 |  |  |  | 22 | 
4 | CSc1cc(C)[nH]c(=O)c1CNC(=O)c1cc(Cl)c2c(c1C)OC(C)(C1CCC(NC3(C(F)(F)F)COC3)CC1)O2 (single isomer, unassigned) [Example 6-Enantiomer 1, 7-chloro-2,4-dimethyl-N-((6-methyl-4-(methylthio)-2-oxo-1,2-dihydropyridin-3-yl)methyl)-2-(4-((3-(trifluoromethyl)oxetan-3-yl)amino)cyclohexyl)benzo[d][1,3]dioxole-5-carboxamide] |  | 1.8 |  |  |  | 39 | 720
5 | CSc1cc(C)[nH]c(=O)c1CNC(=O)c1cc(Cl)c2c(c1C)OC(C)(C1CCC(NC3(CF)COC3)CC1)O2 (single isomer, unassigned) [Example 11 (geometric isomer 1)] | 8.6 | 0.14 | 5.3 | 1.3 | 1.3 |  | 
6 | CSc1cc(C)[nH]c(=O)c1CNC(=O)c1cc(Cl)c2c(c1C)O[C@@](C)([C@H]1CC[C@H](N(C)C)CC1)O2 [Example 4] | 4 | 0.038 | 0.62 | 2.3 | 0.51 |  | 
7 | CSc1cc(Cl)[nH]c(=O)c1CNC(=O)c1cc(Cl)c2c(c1C)OC(C)(C1CCC(N3CC(OC(F)F)C3)CC1)O2 (single isomer, unassigned) [Example 2] | 250 | 1.5 |  |  | 15 |  | 
8 | CSc1cc(C)[nH]c(=O)c1CNC(=O)c1cc(Cl)c2c(c1C)OC(C)(C1CCC(NC3(C(F)(F)F)COC3)CC1)O2 (single isomer, unassigned) [Example 6-Enantiomer 2] |  | 0.14 |  |  |  | 4.2 | 53
9 | CSc1cc(C)[nH]c(=O)c1CNC(=O)c1cc(Cl)c2c(c1C)OC(C)(C1CCN(CC(F)(F)F)CC1)O2 (single isomer, unassigned) [Example 14-Enantiomer 2, 7-chloro-2,4-dimethyl-N-((6-methyl-4-(methylthio)-2-oxo-1,2-dihydropyridin-3-yl)methyl)-2-(1-(2,2,2-trifluoroethyl)piperidin-4-yl)benzo[d][1,3]dioxole-5-carboxamide] |  | 7 | 13 | 0.56 |  | 210 | 
10 | CSc1cc(C)[nH]c(=O)c1CNC(=O)c1cc(Cl)c2c(c1C)OC(C)(C1CCN(CC(F)(F)F)CC1)O2 (single isomer, unassigned) [Example 14-Enantiomer 1, 7-chloro-2,4-dimethyl-N-((6-methyl-4-(methylthio)-2-oxo-1,2-dihydropyridin-3-yl)methyl)-2-(1-(2,2,2-trifluoroethyl)piperidin-4-yl)benzo[d][1,3]dioxole-5-carboxamide] |  | 0.037 |  |  |  | 1.4 | 
11 | CSc1cc(C)[nH]c(=O)c1CNC(=O)c1cc(Cl)c2c(c1C)OC(C)(C1CCC(NC3(CF)COC3)CC1)O2 (single isomer, unassigned) [Example 11 (geometric isomer 2)] |  | 0.18 |  |  |  | 1.7 | 
12 | Cc1cc(Cl)c(CNC(=O)c2cc(Cl)c3c(c2C)OC(C)(C2CCN(CC(F)(F)F)CC2)O3)c(=O)[nH]1 (single isomer, unassigned) [Example 16-Enantiomer 2, 7-chloro-N-((4-chloro-6-methyl-2-oxo-1,2-dihydropyridin-3-yl)methyl)-2,4-dimethyl-2-(1-(2,2,2-trifluoroethyl)piperidin-4-yl)benzo[d][1,3]dioxole-5-carboxamide] |  | > 10 |  |  |  | > 300 | 
